The values that follow come from PubChem BioAssay (NCI).

Molecules are shown by their SMILES. Values after ≈ are worked out from the molar mass of the structure shown.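 96-well plates; 48 h exposure; 5 concentrations. Endpoints by linear interpolation between flanking doses. Not reached: highest tested concentration assigned. GI50 is the concentration that inhibits growth by half. Definition used: TGI = concentration required for complete inhibition of growth.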 A value given as a limit tells only on which side of the number the result lay.

Some test systems named below: EKVX NSCLC; CAKI-1 renal; UO-31 renal; NCI-H460 lung; OVCAR-5 ovarian; TK-10 renal; U251 CNS; MDA-MB-231 breast; MOLT-4 leukemia; HCT-15 colon.
Assay in all cases: NCI-60 cell line screen, 48 h

For `CO/N=C1\CC(NC(=O)C(F)(F)F)c2ccsc21` (configuration not stated), the TGI in the experiment with EKVX NSCLC, with CAKI-1 renal, in the experiment with UO-31 renal, in the experiment on NCI-H460 lung, with OVCAR-5 ovarian and with TK-10 renal was more than 100 µM each time. Moreover, the TGI in the experiment with U251 CNS, with MDA-MB-231 breast, in the experiment on MOLT-4 leukemia and with HCT-15 colon was more than 100 µM each time.
As to `COC(=O)C(Cc1cn(C(C)n2cc(CC(NC(C)=O)C(=O)OC)c3ccccc32)c2ccccc12)NC(C)=O` (configuration not stated), the TGI in the experiment on EKVX NSCLC, in the experiment on CAKI-1 renal, in the experiment on UO-31 renal, in the experiment with NCI-H460 lung, in the experiment with OVCAR-5 ovarian and in the experiment on TK-10 renal was more than 100 µM throughout. Besides, the TGI in the experiment with U251 CNS, with MDA-MB-231 breast, in the experiment with MOLT-4 leukemia and in the experiment on HCT-15 colon was more than 100 µM each time.
As for `O=c1oc2ccccc2c(O)c1Cc1ccc(Cc2c(O)c3ccccc3oc2=O)cc1`, the TGI in the experiment on EKVX NSCLC, with CAKI-1 renal, in the experiment with UO-31 renal, in the experiment with NCI-H460 lung, in the experiment with OVCAR-5 ovarian and in the experiment with TK-10 renal was more than 100 µM each time. Also, the TGI in the experiment on U251 CNS, with MDA-MB-231 breast, with MOLT-4 leukemia and in the experiment with HCT-15 colon was more than 100 µM in each case.
Take `O=C(O)c1nc2ccc(C(F)(F)F)cc2[nH]c1=O`: the TGI in the experiment on EKVX NSCLC, in the experiment with CAKI-1 renal, in the experiment with UO-31 renal, with NCI-H460 lung, in the experiment on OVCAR-5 ovarian and with TK-10 renal was more than 100 µM in each case. Besides, the TGI in the experiment with U251 CNS, in the experiment on MDA-MB-231 breast, in the experiment with MOLT-4 leukemia and with HCT-15 colon was more than 100 µM throughout.
In the case of `CCOC(=O)c1csc(NC(=O)C(C)N2CCCC2)n1` (configuration not stated), the TGI in the experiment on CAKI-1 renal, in the experiment with UO-31 renal, in the experiment with NCI-H460 lung, with OVCAR-5 ovarian, with TK-10 renal and in the experiment on U251 CNS was more than 100 µM in each case. Besides, the TGI in the experiment on MDA-MB-231 breast and in the experiment on HCT-15 colon was more than 100 µM in each case.
Take `CC(=O)NNc1nc(C)c(C(=O)NNC(=O)C(=O)Nc2ccc([N+](=O)[O-])cc2[N+](=O)[O-])s1`: the TGI in the experiment on EKVX NSCLC, with CAKI-1 renal, with UO-31 renal, with NCI-H460 lung, in the experiment with OVCAR-5 ovarian and in the experiment on TK-10 renal was more than 100 µM in each case. Further, the TGI with U251 CNS, in the experiment with MOLT-4 leukemia and in the experiment with HCT-15 colon was more than 100 µM throughout.
With `O=C1NN(C2=NNC3(C(=O)N2)c2ccccc2-c2ccccc23)C(c2ccccc2)=N/C1=C/c1ccc(Cl)cc1`, the GI50 in the experiment with EKVX NSCLC is 38.7 µg/mL (≈ 71 µM); with CAKI-1 renal it was 74.4 µg/mL (≈ 136 µM); in the experiment on UO-31 renal, 48 µg/mL (≈ 88 µM); in the experiment with NCI-H460 lung, 48.7 µg/mL (≈ 89.3 µM); with OVCAR-5 ovarian it was 132 µg/mL (≈ 242 µM); in the experiment on TK-10 renal it was 50.5 µg/mL (≈ 92.6 µM). For the same molecule, the GI50 in the experiment on U251 CNS is 41.3 µg/mL (≈ 75.8 µM); with MDA-MB-231 breast, 47.9 µg/mL (≈ 87.8 µM); with MOLT-4 leukemia, 42.7 µg/mL (≈ 78.4 µM); in the experiment with HCT-15 colon it was 54.1 µg/mL (≈ 99.3 µM). The TGI is 108 µg/mL in the experiment on EKVX NSCLC; more than 150 µg/mL in the experiment with CAKI-1 renal; more than 150 µg/mL in the experiment with UO-31 renal; more than 150 µg/mL in the experiment with NCI-H460 lung; more than 150 µg/mL in the experiment on OVCAR-5 ovarian; 132 µg/mL in the experiment on TK-10 renal. Besides, the TGI in the experiment on U251 CNS was 143 µg/mL; with MDA-MB-231 breast, more than 150 µg/mL; in the experiment on MOLT-4 leukemia, more than 150 µg/mL; in the experiment on HCT-15 colon, more than 150 µg/mL.
